Assays:
[1] = tested on: Chlorella sorokiniana; assay: Biostimulant static culture batch study: biomass productivity; type: cell-based, Chlorella sorokiniana (UTEX 2805); settings: for effect on biomass / algal growth versus control, in words: day 5 and 10; for effect on biomass / algal growth versus control, in words / growth (biomass) increase over control: dosage of Table 1; for biomass (cell concentration / biomass productivity): 0.16 g/L with no biostimulants; for increase in biomass over control: dosage of Table 1 (NAA 5 ppm, PAA 30 ppm, IBA 10 ppm); for growth (biomass) increase over control: day not given
Experimental: (§1) The pH value of culture medium was adjusted to 7.0±0.2 before inoculation and the alga was maintained in a temperature controlled growth chamber at 25±1° C. and 100±10 μmoles/m^2/s light intensity provided by cool white fluorescent (6500K) T-8 bulbs.
(§2) • Selection of the biochemical stimulants: Ten biochemical stimulants were selected, including indole-acetic acid, naphthalene-acetic acid, and phenyl-acetic acid The structures are shown in FIGS. 1 and 2. • Biochemical stimulants: Naphthalene acetic acid (NAA), indole-butryic acid […], gibberellic acid, and kelp extract were obtained from Super-Grow Plant Care, Montreal, Canada; Zeatin, and thidiazuron were obtained from bioWORLD, GeneLinx International, Inc, Ohio, USA; phenyl-acetic acid was supplied by Sigma-Aldrich, St. Louis, Mo., USA.
(§3) The experiment devised for the testing of biostimulants was a static culture batch study performed in triplicates for all treatments. Samples were collected and analyzed on day 0, 5 and 10. The growth medium was comprised of 90 ml of BG11 with appropriate concentrations of various biostimulants. Biochemical stimulants were filter sterilized through 0.22 μm Whatman syringe filter to avoid bacterial contamination. Each flask received 10 ml inoculum of exponentially growing Chlorella sorokiniana. After inoculation, flasks were incubated in the environmental growth chamber for 10 days in a temperature controlled growth chamber at 25±1° C. and 100±10 μmoles/m^21s light intensity provided by cool white fluorescent (6500K) T-8 bulbs.
(§4) • Analysis: Optical density was measured at 750 nm using a UV/Visible Spectrophotometer (Varian Cary 50, Varian Inc, Palo Alto, Calif., USA). Chlorophyll content was estimated following the method of Porra et al., ((1989) Biochem. Biophys. Acta 975: 384-394, incorporated herein in its entirety). The carbohydrate and protein content were estimated using the well-known methods of Dubois and Lowry respectively. Biomass was determined by filtering 25 mL of culture using pre-weighed Whatman GF/C glass fiber filters (1.2 μm). The material was washed with deionized water, dried at 60° C. for 12 h, and weighed. Photosynthetic efficiency and kinetics were determined by chlorophyll a fluorescence analysis using a Pulse Amplitude Modulation Fluorometer (Mini-PAM Chlorophyll a Fluorometer, Heinz Walz GmbH, Effeltrich, Germany).

[2] = tested on: Chlorella sorokiniana; assay: Biostimulant static culture batch study: chlorophyll content; type: cell-based, Chlorella sorokiniana (UTEX 2805); set-up: increase in chlorophyll over control / decrease in chlorophyll content versus control: concentration or dose not given beside the values; settings: for increase in chlorophyll over control: day 10; for decrease in chlorophyll content versus control: day 5
Experimental: as §1, §2, §3, §4

[3] = tested on: Chlorella sorokiniana; assay: Biostimulant static culture batch study: total carbohydrate content; type: cell-based, Chlorella sorokiniana (UTEX 2805); settings: for effect on carbohydrate synthesis versus control, in words: day 5; for increase in carbohydrate over control: day 10
Experimental: as §1, §2, §3, §4

[4] = tested on: Scenedesmus obliquus; settings: 0.5% (v/v); cited from earlier work
[5] = tested on: soy callus and radish cotyledon; settings: cited from earlier work
[6] = tested on: callus tissue culture from tobacco; settings: cited from earlier work
[7] = tested on: Dunaliella tertiolecta; settings: 136 mg L^−1; cited from earlier work

## C=C1C[C@]23C[C@@]1(O)CC[C@H]2[C@@]12C=C[C@H](O)[C@@](C)(C(=O)O1)[C@H]2[C@@H]3C(=O)O [GAA, gibberellic acid]
[1]
  effect on biomass / algal growth versus control, in words: barely surpassed the control on day 5
[1]; day 10
  biomass (cell concentration / biomass productivity): ~0.28 g/L
[1]; day 10, listed as GA
  increase in biomass over control: approximately 30%
[1]; day 10, listed as GA3
  increase in biomass over control: 81%
[2]
  effect on chlorophyll synthesis, in words: inhibiting chlorophyll synthesis throughout the growth period
  increase in chlorophyll over control: 30%

## O=C(O)CCCc1c[nH]c2ccccc12 [IBA, indole-butryic acid]
[1]; day 5
  increase in biomass over control: 74%
[1]
  effect on biomass / algal growth versus control, in words: stimulated biomass growth during the entire 0-10 day growth period
[1]; day 10
  biomass (cell concentration / biomass productivity): 0.28 g/L
  increase in biomass over control: 76%
[2]
  effect on chlorophyll synthesis, in words: marginal increase by day 5
  increase in chlorophyll over control: 93%
[3]
  effect on carbohydrate synthesis versus control, in words: reduced carbohydrate contents on day 5

## CO [MeOH, methanol]
[2]
  decrease in chlorophyll content versus control: 45%
[4]
  increase in the growth rate: > 300%

## O=C(O)Cc1ccccc1 [PAA, Phenyl acetic acid]
[1]; day 5
  increase in biomass over control: 95%
[1]; day 10
  increase in biomass over control: 42%
[2]
  decrease in chlorophyll content versus control: 37%
[3]
  effect on carbohydrate synthesis versus control, in words: reduced carbohydrate contents on day 5
  increase in carbohydrate over control: 27%

## O=C(Nc1ccccc1)Nc1cnns1 [TDZ, thidiazuron]
[1]; day 10
  increase in biomass over control: approximately 30%
[1]
  growth (biomass) increase over control: 33%
[2]
  increase in chlorophyll over control: 30%
[5]
  optimal dose that generated maximum growth in soy callus and expansion of radish cotyledon: 1 µM

## C/C(=C\CNc1ncnc2[nH]cnc12)CO [Zeatin]
[1]
  growth (biomass) increase over control: 27%
[3]
  effect on carbohydrate synthesis versus control, in words: reduced carbohydrates synthesis on day 5
  increase in carbohydrate over control: 31%
[6]
  activity relative to its cis isomer: at least 50 times
  optimal dosage for maximum growth of callus tissue culture: 10^−2 μM

## CCNc1nc(Cl)nc(NC(C)C)n1 [atrazine]
[7]
  increase in lipid content relative to the control: 101%
  reduction of protein content relative to the control: 57%

## [Cl][Fe]([Cl])[Cl] [ferric chloride]
[1]
  effect on biomass / algal growth versus control, in words: only marginal increases and decreases on day 10 and 5
[2]
  decrease in chlorophyll content versus control: 65%

Reference: patent US20110091945A1, “METHODS OF INCREASING BIOMASS PRODUCTIVITY, LIPID INDUCTION, AND CONTROLLING METABOLITES IN ALGAE FOR PRODUCTION OF BIOFUELS USING BIOCHEMICAL STIMULANTS” (priority 2009, published 2011)
